Counter-ions that a name gives are not always drawn.
Molecular target: T1, serotonin 4 receptor (5-HT4) (Cavia porcellus, UniProt O70528)
T1 construct: from tissue; host or cells: longitudinal muscle strips of guinea pig ileum (Harley guinea pigs)
Test: Stimulating activity on serotonin 4 receptor (twitch response in guinea pig ileum)
Type: cell-based
Settings: not given
Experimental: Stimulating activity on serotonin 4 receptor
From Harley guinea pigs weighing 250 to 400 g, a section of ileum 10 to 20 cm proximal to the ileocecal junction was removed. Longitudinal muscle strips obtained from the ileum were used for this assay. The preparations were suspended in Krebs' solution at 32 to 34° C., bubbled continuously with 95% O2 and 5% CO2, and subjected to initial tension of about 0.8 g. Responses were recorded isometrically. Twitch responses were evoked by electrical stimulation (0.2 Hz, 1 msec pulse duration). The preparations were stimulated at supramaximal voltage for 2 to 3 hours, and were then allowed to equilibrate for about 1 hour at submaximal voltage. […] The preparations were left for at least 45 minutes before cumulative addition of each agonist.
The quinolinecarboxylic acid derivatives of the present invention were employed as sample compounds. For comparison, the following compounds were employed. These compounds were diluted by dissolving them in distilled water or in DMSO.
The data obtained was analyzed by RS1 (BBN Software Product Co.).

T1 sequence (O70528 whole entry): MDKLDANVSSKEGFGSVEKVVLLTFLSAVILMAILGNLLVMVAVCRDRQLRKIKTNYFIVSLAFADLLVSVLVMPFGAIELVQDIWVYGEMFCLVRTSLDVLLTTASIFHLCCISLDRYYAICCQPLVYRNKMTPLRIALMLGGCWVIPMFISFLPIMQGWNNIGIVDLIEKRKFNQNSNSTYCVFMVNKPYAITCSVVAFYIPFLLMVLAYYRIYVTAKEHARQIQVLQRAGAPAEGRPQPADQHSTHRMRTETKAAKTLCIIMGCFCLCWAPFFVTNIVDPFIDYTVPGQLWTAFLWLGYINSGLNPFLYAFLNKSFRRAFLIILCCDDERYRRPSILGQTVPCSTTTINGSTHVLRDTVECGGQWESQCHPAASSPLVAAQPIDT

Row | Compound | EC50
1 | CC(C)n1c(=O)c(C(=O)NC2CC3CCC(C2)N3CCCC(=O)O)cc2ccccc21 (stereo not drawn) [Compound 28, Endo-N-(8-(3-carboxypropyl)-8-azabicyclo[3.2.1]oct-3-yl)-1-isopropyl-2-oxo-1,2-dihydro-3-quinolinecarboxamide] | 0.0914 µM
2 | C=CCN1C2CCC1CC(NC(=O)c1cc3ccccc3n(C(C)C)c1=O)C2 (stereo not drawn) [Compound 1, endo-N-(8-(2-propenyl)-8-azabicyclo[3.2.1]oct-3-yl)-1-isopropyl-2-oxo-1,2-dihydro-3-quinolinecarboxamide] | 0.0592 µM
3 | CC(C)n1c(=O)c(C(=O)NC2CC3CCC(C2)N3CC(=O)O)cc2ccccc21 (stereo not drawn) [Compound 26, Endo-N-(8-(carboxymethyl)-8-azabicyclo[3.2.1]oct-3-yl)-1-isopropyl-2-oxo-1,2-dihydro-3-quinolinecarboxamide] | 0.0661 µM
4 | CC(C)n1c(=O)c(C(=O)O[C@H]2C[C@H]3CC[C@@H](C2)N3CCOc2ccccc2)cc2ccccc21 [Compound 49, Endo-8-(2-phenoxyethyl)-8-azabicyclo[3.2.1]oct-3-yl 1-isopropyl-2-oxo-1,2-dihydro-3-quinolinecarboxylate hydrochloride] | 0.039 µM
5 | CC(C)n1c(=O)c(C(=O)O[C@H]2C[C@H]3CC[C@@H](C2)N3CCN2CCOCC2)cc2ccccc21 [Compound 47, Endo-8-(2-morpholinoethyl)-8-azabicyclo[3.2.1]oct-3-yl 1-isopropyl-2-oxo-1,2-dihydro-3-quinoline-carboxylate dihydrochloride] | 0.0308 µM
6 | CC(C)n1c(=O)c(C(=O)O[C@H]2C[C@H]3CC[C@@H](C2)N3CC(N)=O)cc2ccccc21 [Compound 56, Endo-8-carbamoylmethyl-8-azabicyclo[3.2.1]oct-3-yl 1-isopropyl-2-oxo-1,2-dihydro-3-quinolinecarboxylate] | 0.0314 µM
7 | CC(C)n1c(=O)c(C(=O)NC2CC3CCC(C2)N3CCCCO)cc2ccccc21 (stereo not drawn) [Compound 6, Endo-N-(8-(4-hydroxybutyl)-8-azabicyclo[3.2.1]oct-3-yl)-1-isopropyl-2-oxo-1,2-dihydro-3-quinolinecarboxamide] | 0.0385 µM
8 | CC(=O)CN1[C@@H]2CC[C@H]1C[C@@H](OC(=O)c1cc3ccccc3n(C(C)C)c1=O)C2 [Compound 52, Endo-8-(2-oxopropyl)-8-azabicyclo[3.2.1]oct-3-yl 1-isopropyl-2-oxo-1,2-dihydro-3-quinolinecarboxylate hydrochloride] | 0.0246 µM
9 | CC(C)n1c(=O)c(C(=O)OC2CC3CCC(C2)N3CCCCCO)cc2ccccc21 (stereo not drawn) [Compound 40, Endo-8-(5-hydroxypentyl)-8-azabicyclo[3.2.1]oct-3-yl 1-isopropyl-2-oxo-1,2-dihydro-3-quinolinecarboxylate hydrochloride] | 0.0255 µM
10 | CC(=O)CN1C2CCC1CC(NC(=O)c1cc3ccccc3n(C(C)C)c1=O)C2 (stereo not drawn) [Compound 30, Endo-N-(8-(2-oxopropyl)-8-azabicyclo[3.2.1]oct-3-yl)-1-isopropyl-2-oxo-1,2-dihydro-3-quinolinecarboxamide hydrochloride] | 0.0115 µM
11 | CC(C)n1c(=O)c(C(=O)NC2CC3CCC(C2)N3CCCCCCO)cc2ccccc21 (stereo not drawn) [Compound 8, Endo-N-(8-(6-hydroxyhexyl)-8-azabicyclo[3.2.1]oct-3-yl)-1-isopropyl-2-oxo-1,2-dihydro-3-quinolinecarboxamide hydrochloride] | 0.0623 µM
12 | CC(C)n1c(=O)c(C(=O)NC2CC3CCC(C2)N3CCO)cc2ccccc21 (stereo not drawn) [Compound 4, Endo-N-(8-(2-hydroxyethyl)-8-azabicyclo[3.2.1]oct-3-yl)-1-isopropyl-2-oxo-1,2-dihydro-3-quinolinecarboxamide] | 0.0459 µM
13 | C=CCN1C2CCC1CC(OC(=O)c1cc3ccccc3n(C(C)C)c1=O)C2 (stereo not drawn) [Compound 35, endo-8-(2-propenyl)-8-azabicyclo[3.2.1]oct-3-yl 1-isopropyl-2-oxo-1,2-dihydro-3-quinolinecarboxylate hydrochloride] | 0.0544 µM
14 | CC(C)n1c(=O)c(C(=O)NC2CC3CCC(C2)N3CCC#N)cc2ccccc21 (stereo not drawn) [Compound 33, Endo-N-(8-(2-cyanoethyl)-8-azabicyclo[3.2.1]oct-3-yl)-1-isopropyl-2-oxo-1,2-dihydro-3-quinolinecarboxamide] | 0.0358 µM
15 | CSCCN1C2CCC1CC(NC(=O)c1cc3ccccc3n(C(C)C)c1=O)C2 (stereo not drawn) [Compound 17, Endo-N-(8-(2-(methylthio)ethyl)-8-azabicyclo[3.2.1]oct-3-yl)-1-isopropyl-2-oxo-1,2-dihydro-3-quinolinecarboxamide] | 0.048 µM
16 | CC(C)n1c(=O)c(C(=O)O[C@H]2C[C@H]3CC[C@@H](C2)N3CCS(=O)(=O)c2ccccc2)cc2ccccc21 [Compound 46, Endo-8-(2-(phenylsulfonyl)ethyl)-8-azabicyclo[3.2.1]oct-3-yl 1-isopropyl-2-oxo-1,2-dihydro-3-quinolinecarboxylate] | 0.0465 µM
17 | CC(C)n1c(=O)c(C(=O)OC2CC3CCC(C2)N3CCCCO)cc2ccccc21 (stereo not drawn) [Compound 39, Endo-8-(4-hydroxybutyl)-8-azabicyclo[3.2.1]oct-3-yl 1-isopropyl-2-oxo-1,2-dihydro-3-quinolinecarboxylate hydrochloride] | 0.0166 µM
18 | CC(C)n1c(=O)c(C(=O)O[C@H]2C[C@H]3CC[C@@H](C2)N3CCC#N)cc2ccccc21 [Compound 55, Endo-8-(2-cyanoethyl)-8-azabicyclo[3.2.1]oct-3-yl 1-isopropyl-2-oxo-1,2-dihydro-3-quinolinecarboxylate] | 0.0273 µM
19 | CC(C)n1c(=O)c(C(=O)NC2CC3CCC(C2)N3CC2CCCCO2)cc2ccccc21 (stereo not drawn) [Compound 22, Endo-N-(8-(tetrahydropyran-2-methyl)-8-azabicyclo[3.2.1]oct-3-yl)-1-isopropyl-2-oxo-1,2-dihydro-3-quinolinecarboxamide] | 0.024 µM
20 | COCCN1[C@@H]2CC[C@H]1C[C@@H](OC(=O)c1cc3ccccc3n(C(C)C)c1=O)C2 [Compound 42, Endo-8-(2-methoxyethyl)-8-azabicyclo[3.2.1]oct-3-yl 1-isopropyl-2-oxo-1,2-dihydro-3-quinolinecarboxylate hydrochloride] | 0.0184 µM
21 | CC(C)n1c(=O)c(C(=O)OC2CC3CCC(C2)N3CCO)cc2ccccc21 (stereo not drawn) [Compound 37, Endo-8-(2-hydroxyethyl)-8-azabicyclo[3.2.1]oct-3-yl 1-isopropyl-2-oxo-1,2-dihydro-3-quinolinecarboxylate hydrochloride] | 0.0161 µM
22 | CC(C)n1c(=O)c(C(=O)O[C@H]2C[C@H]3CC[C@@H](C2)N3CC2CCCCO2)cc2ccccc21 (stereo partly drawn) [Compound 48, Endo-8-(tetrahydropyran-2-methyl)-8-azabicyclo[3.2.1]oct-3-yl 1-isopropyl-2-oxo-1,2-dihydro-3-quinolinecarboxylate hydrochloride] | 0.0559 µM
23 | CC(=O)OCCCCCN1C2CCC1CC(NC(=O)c1cc3ccccc3n(C(C)C)c1=O)C2 (stereo not drawn) [Compound 9, Endo-N-(8-(5-acetoxypentyl)-8-azabicyclo[3.2.1]oct-3-yl)-1-isopropyl-2-oxo-1,2-dihydro-3-quinolinecarboxamide hydrochloride] | 0.033 µM
24 | CC(C)n1c(=O)c(C(=O)NC2CC3CCC(C2)N3CCS(=O)(=O)c2ccccc2)cc2ccccc21 (stereo not drawn) [Compound 19, Endo-N-(8-(2-(phenylsulfonyl)ethyl)-8-azabicyclo[3.2.1]oct-3-yl)-1-isopropyl-2-oxo-1,2-dihydro-3-quinolinecarboxamide] | 0.0866 µM
25 | CCOC(=O)CCCN1[C@@H]2CC[C@H]1C[C@@H](OC(=O)c1cc3ccccc3n(C(C)C)c1=O)C2 [Compound 51, Endo-8-(3-(ethoxycarbonyl)propyl)-8-azabicyclo[3.2.1]oct-3-yl 1-isopropyl-2-oxo-1,2-dihydro-3-quinolinecarboxylate hydrochloride] | 0.023 µM
26 | CC(C)n1c(=O)c(C(=O)O[C@H]2C[C@H]3CC[C@@H](C2)N3CCCCCCO)cc2ccccc21 [Compound 41, Endo-8-(6-hydroxyhexyl)-8-azabicyclo[3.2.1]oct-3-yl 1-isopropyl-2-oxo-1,2-dihydro-3-quinolinecarboxylate hydrochloride] | 0.0509 µM
27 | CC(C)n1c(=O)c(C(=O)NC2CC3CCC(C2)N3CC(N)=O)cc2ccccc21 (stereo not drawn) [Compound 34, Endo-N-(8-carbamoylmethyl-8-azabicyclo[3.2.1]oct-3-yl)-1-isopropyl-2-oxo-1,2-dihydro-3-quinolinecarboxamide] | 0.0619 µM
28 | CCN(CC)CCN1[C@@H]2CC[C@H]1C[C@@H](OC(=O)c1cc3ccccc3n(C(C)C)c1=O)C2 [Compound 44, Endo-8-(2-diethylaminoethyl)-8-azabicyclo[3.2.1]oct-3-yl 1-isopropyl-2-oxo-1,2-dihydro-3-quinolinecarboxylate dihydrochloride] | 0.0726 µM

Same assay, conditions: twitch response in guinea pig ileum; maximum contraction of sample compound = 100%; read-out: ED50 (concentration enhancing the twitch response by 50%)

Row | Compound | EC50
29 | CC(C)n1c(=O)c(C(=O)O[C@H]2C[C@H]3CC[C@@H](C2)N3c2nccs2)cc2ccccc21 [Compound 58, endo-8-(2-thiazolyl)-8-azabicyclo[3.2.1]oct-3-yl 1-isopropyl-2-oxo-1,2-dihydro-3-quinolinecarboxylate hydrochloride, reference compound] | 1.14 µM
30 | CN1[C@@H]2CC[C@H]1C[C@@H](NC(=O)c1cc3ccccc3[nH]c1=O)C2 [Comparative Compound 2, reference compound] | > 3 µM
31 | CN1[C@@H]2CC[C@H]1C[C@@H](OC(=O)c1cc3ccccc3[nH]c1=O)C2 [Comparative Compound 3, reference compound] | > 3 µM
32 | CCCCn1c(=O)c(C(=O)N[C@H]2C[C@H]3CC[C@@H](C2)N3C)c(O)c2ccccc21 [Comparative Compound 4, reference compound] | > 3 µM

— patent publication US5753673A, “Quinolinecarboxylic acid derivatives” (Taisho Pharmaceutical Co., Ltd., priority 1994, dated 1998)
